# Laboratory results as given in patent US12016831B2, “Polidocanol for use as immunomodulating agent” (priority 2018, dated 2024).
# Columns and labels:
# [1] = system: patients with C2 CEAP Class and bearing lower limbs varices; assay: Venous refilling time measurement via photoplethysmography (FPG); format: in vivo, human; conditions: for venous refilling time (VRT): Diluted Polidocanol Group
# Source text: The results were confirmed by photoplethysmography in a limited number of patients (n=20) wherein the measurement of venous refilling registered and examined, compared to the beginning of the treatment (after at least 4 sessions), has evidenced an increase of the peripheral venous refilling time in 17 out of 20 cases, indicating a plausible increase of venous resistance, i.e. a reduction of the peripheral reticulo-capillary bed or anyway of the superficial venous system. • 9. Improvement of the so-called “cellulitis”. The results were as follows:
# 40 patients with C2 CEAP Class and bearing lower limbs varices were examined via photoplethysmography exam with a Photoplethysmograph with Light Reflection Rheography/1-Channel (Vasoquant 1000 D-Ppg), they were divided into two homogeneous groups wherein the venous refilling time was measured before and after the hemodynamic therapy.
# In the Diluted Polidocanol Group the hemodynamic therapy was followed after 30 days by sclerosing treatment with diluted polidocanol, prepared as described in example 1. In the Basal Group, after hemodynamic therapy no further treatment was carried out.
# In the Basal Group of 20 patients, measurements of the refilling time of the superficial veins (SV) via photoplethysmography (FPG) exam were carried out at time zero, at time 1 (1 month) after hemodynamic (surgical) therapy on the varices, and at time 6 (6 months) without any further treatment.
# In the Diluted Polidocanol Group of 20 patients, measurements of the refilling time of the SV via FPG were carried out at time zero, at 1 month after hemodynamic (surgical) therapy on the varices, and at time 6 (6 months) after 3-4 sessions of sclerotherapy with the method of the invention.
# [2] = system: venous, reticular or capillary vessels of treated subjects; assay: Clinical observation of treated subjects: venous functionality, sclerosing effect, side effects; format: in vivo, human; conditions: for sclerosing effect (venous, reticular or capillary parietal damage): diluted solution according to the invention, intravenous
# Protocol: It is administered parenterally via the intravenous route.
# Moreover, its use, for at least 4 applications every two months, contributes in determining a higher overall well-being, associated with an anti-inflammatory activity and with the modulation of several molecular markers of the immune and endothelial system. This modulation in addition to ameliorating the venous system functionality, which is objectively observed in most of the treated subjects (95-98%) and results in a reduction of the limbs heaviness sensation and of orthostatic oedema and cellulitis, exert a systemic effects, often also accompanied by an improved skin trophism.
# There is almost no evidence even of quite common reactions (0.1-1%), such as superficial thrombophlebitis, allergic dermatitis, hives, erythema, skin necrosis.
# Therefore, a further aspect of the present invention is a composition comprising polidocanol in concentration below 0.1%, preferably of from 0.03 to 0.09% by weight, preferably of from 0.04 to 0.08%, preferably of 0.05%-0.06% in saline solution (0.9% w/V NaCl) for use as immunomodulating and anti-inflammatory agent.
substance,measurement,setting,value
Polidocanol [diluted polidocanol],patients with an improved index according to FPG exam,"[1]; 6 months, after 3-4 sessions, 18 out of 20",90%
same,venous refilling time (VRT),"[1]; 1 month, basal 24.3±6.78, p<0.05",35.3 ± 4.14 s
same,venous refilling time (VRT),"[1]; 6 months, after 3-4 sessions, p<0.05 vs 1 month",37.6 ± 4.13 s
same,"refilling time at T6, Diluted Polidocanol Group vs basal group","[1]; T6 (6 months), basal group 35, p<0.001 Chi-squared test",38 s
same,cases with increase of the peripheral venous refilling time,"[1]; n=20, after at least 4 sessions, compared to the beginning of the treatment",17 out of 20
same,treated subjects in which ameliorated venous system functionality is objectively observed,[2]; at least 4 applications every two months,95-98%
same,side effects,"[2]; concentrations of the treatment according to the invention, vs traditional sclerotherapy",very limited to zero side effects
same,"sclerosing effect (venous, reticular or capillary parietal damage)",[2],does not exert a sclerosing effect
same,"sclerosing effect (venous, reticular or capillary parietal damage)",[2]; listed as polidocanol,non-sclerosing effect
same,polidocanol concentrations having a sclerosing effect on small calibre capillaries or reticular veins,"[2]; human, in vivo",≥ 0.12%
